Tests used:
LACV [1] = experiment: Antiviral efficacy against LACV in Vero cells, virus titer by plaque assay; type: cell-based; conditions: La Crosse virus, LACV 0.1 MOI, 24 hpi, read-out: EC50 (50% reduction in virus titer)
Procedure: (§1) Cells were seeded in 24-well plates (1 × 10^5 cells/well) and infected with LACV (0.1 MOI). At 1 hour post infection (hpi), medium was replaced with fresh medium containing 6 different concentrations for each of the drugs. RBV and FAV were tested at concentrations of 1, 3, 10, 30, 100, and 300 μM, while NHC was tested at concentrations of 0.1, 0.3, 1, 3, 10 and 30 μM. DMSO was used as vehicle control. At 24 hpi, the cell supernatant was harvested, centrifuged to eliminate cell debris and stored at −80 °C for sequencing (described below) and plaque assay following the method of Ojha et al. 2021 [32]. Quantified virus titers were plotted to represent antiviral efficacy. The EC50 (50% effective concentration representing a 50% reduction in virus titer) was determined by extrapolating a dose-response curve using GraphPad Prism 8 and 9.

LACV [2] = experiment: Antiviral efficacy against LACV in N2a cells, virus titer by plaque assay; type: cell-based; conditions: La Crosse virus, LACV 0.1 MOI, 24 hpi, read-out: EC50 (50% reduction in virus titer)
Procedure: as §1

LACV [3] = experiment: Antiviral efficacy against LACV in hNSCs, virus titer by plaque assay; type: cell-based; conditions: La Crosse virus, LACV 0.1 MOI, 24 hpi, read-out: EC50 (50% reduction in virus titer)
Procedure: as §1

LACV [4] = experiment: Serial passage of LACV in presence of NHC in Vero cells (resistance selection); type: cell-based, La Crosse virus; conditions: for EC50: La Crosse virus, Vero cells
Procedure: as §1
We used a digital scanner to scan the plaque assay plates. Digitized images were imported into FIJI/ImageJ v1.52n, and pixel calibration values were calculated based on the well diameter and corresponding digitized image. To quantify plaque size (surface area), wells with clearly isolated plaques were selected for segmentation and analysis. The image lookup table for each well was inverted followed by binarization prior to analysis, with a minimum area of 0.39 mm^2 to eliminate false positives due to slight variations in crystal violet staining. The measurements were imported into Microsoft Excel for data compilation, and graphed and analyzed using GraphPad Prism v9.3.1. Analysis of plaque size was done only when the plaque assays for different virus samples were done in parallel.
Vero cells were seeded at 5×10^5 cells/well in a 6-well plate for each passage. For the first passage, Vero cells were infected with LACV at MOIs of 10, 0.1, and 0.001 in 3 ml of medium, and treated with 0.1 μM of NHC or DMSO vehicle control. After 3 dpi, the virus inoculum was harvested from wells where more than 25% of cells were still attached to the well (using light microscopy). The harvested supernatants were centrifuged to clarify dead cells and then used to reinfect Vero cells at dilutions of 1:1,000, 1:100,000, and 1:10,000,000 and treated with 0.1 μM NHC for the first series of 5 passages where at each passage the culture with the highest dilution of virus that still gave rise to incomplete CPE (i.e. 25% of the cells still attached) was saved for the next passage. Second, third, and fourth series of 5 passages were treated with 0.2, 0.4 and 0.8 μM of NHC, respectively. After 20 passages in total, virus suspensions were collected, centrifuged, and frozen at −80°C to perform dose-dependent antiviral activity and plaque assays for virus titers (as described above).

Cache Valley virus (CVV) = experiment: Antiviral efficacy against Cache Valley virus in Vero cells, plaque assay; type: cell-based; conditions: 24 hpi, read-out: EC50 infectious virus production
Procedure: as §1
(§2) We also evaluated the ability of NHC to inhibit the replication of two other orthobunyaviruses, Cache Valley virus (CVV) and Jamestown Canyon (JCV). JCV belongs to the same serogroup as LACV but causes neurological disease in both children and adults. CVV is a member of the Bunyamwera serogroup and is the most common orthobunyavirus in the United States. Infections were done following the same protocol as for Fig 1. […] Thus, NHC inhibited virus replication for multiple orthobunyaviruses in different serogroups with similar potency.

Jamestown Canyon (JCV) = experiment: Antiviral efficacy against Jamestown Canyon virus in Vero cells, plaque assay; type: cell-based; conditions: 24 hpi, read-out: EC50 infectious virus production
Procedure: as §1, §2

in vitro = type: cell-based; conditions: MTT, 24h
Procedure: Method: Cells were seeded in 96-well plates (1-2x10^4 cells/well) after attachment different concentrations of each drug containing fresh media were added to each well, in triplicate. DMSO was used as a control. At 24h post-treatment, MTT assays were carried out according to the manufacturer’s instructions (Invitrogen, ThermoFisher Scientific). The absorbance was measured using the Synergy 4 cell plate reader (BioTek) at 540 nm. This assay was used to estimate the drug-induced cytotoxicity using the following formula: (sample absorbance/DMSO absorbance) × 100%. The CC50 (50% cytotoxic concentration) was determined by extrapolating the dose–response curve.

LACV [5] = experiment: MPID-NGS mutation rate of LACV in cell culture; type: cell-based, La Crosse virus; conditions: Vero cells; RBV, FAV: increase only at 100 μM; NHC also in hNSCs and N2a
Procedure: as §1
We used a Primer ID (PID) library preparation approach with Illumina MiSeq next-generation sequencing (NGS) to examine the mutagenic effects of these drugs on viral RNA allowing deep coverage of the viral population while maintaining a low method error rate (1 in 10,000 nucleotides). We designed cDNA primers targeting a 372 bp region of the RdRp gene within the L segment (referred as L7 in the study), and included a second amplicon covering a 455 bp portion of the M segment (referred as M4 in the study). Each cDNA primer included a block of random nucleotides (11 bases long) as the Primer ID/unique molecular identifier (UMI). […] After gel purification/extraction of the PCR product (Qiagen MinElute Gel Extraction kit), the extracted libraries were quantified using a Qubit fluorimeter and subjected to Agilent TapeStation analysis. For each sequencing run, 24 quantified libraries were pooled for MiSeq 300 base paired-end sequencing at the UNC High Throughput Sequencing Facility. […] Each type of substitution rate was calculated against the wildtype sequence at the sequenced regions. The sequencing date were submitted to the National Center for Biotechnology Information (NCBI) Sequence Read Archive (SRA), accession number is PRJNA1092655.

[6] = African green monkey, Vero cells

Compound | EC50 (LACV [1]) | EC50 (LACV [2]) | EC50 (LACV [3]) | EC50 (LACV [4]; after 20 passages with 0.1 to 0.8 μM NHC, read-out: EC50 against NHC-selected LACV) | EC50 (LACV [4]; after 20 passages, read-out: EC50 against control (DMSO) passaged LACV) | supernatant virus titer at end of selection lower than control passaged virus (LACV [4]; passage 20) | average plaque size of virus passaged with NHC vs DMSO control (LACV [4]; passage 20 virus stocks) | EC50 (Cache Valley virus (CVV)) | EC50 (Jamestown Canyon (JCV)) | CC50 (in vitro; [6]) | CC50 (in vitro; human, hNSCs) | mutation rate of LACV grown in presence of drug (LACV [5])
O=c1nc(NO)ccn1[C@@H]1O[C@H](CO)[C@@H](O)[C@H]1O [NHC, N^4-hydroxycytidine] | 0.57 µM | 1.5 µM | 1.2 µM | 0.49 µM | 0.5 µM | approximately 15 fold | significantly smaller | 0.25 µM | 0.3 µM | 203 µM | 132 µM | dose-dependent relationship
NC(=O)c1ncn([C@@H]2O[C@H](CO)[C@@H](O)[C@H]2O)n1 [RBV, ribavirin] | 42.7 µM | 3.8 µM | 27.7 µM |  |  |  |  |  |  | 1780 µM | 1260 µM | did not see a significant increase in mutation rates

Reference: paper PMC11493283, “N^4-Hydroxycytidine/molnupiravir inhibits RNA virus-induced encephalitis by producing less fit mutated viruses” (PLOS Pathogens, 2024)
